One assay relates to AI-2 activity of O15. Put plainly: AI-2 bioluminescence indicator assay, APEC O15. The assay is classed as cell-based, avian pathogenic E. coli (APEC) O15. The note with it: Escherichia coli, read-out: % Inhibtion of AI-2 activity, serotype O15, bioluminescence vs DMSO treated control. As for the experimental part:
(§1) Overnight culture of APEC O78 prepared in LB broth was adjusted to an optical density (OD600) of 0.05 (7 × 10^7 CFU/mL) in fresh LB broth. One hundred micro-liters of the culture was transferred to a 96-well plate and 1µL (100 μM final concentration) of the compound was added to each well using a pin tool. Chloramphenicol (40 μg/mL) or kanamycin (30 μg/mL) and 1μL of 100% DMSO were included as controls in each plate. Plates were incubated at 37 °C for 10 h with shaking in a Sunrise^TM Tecan plate reader (Tecan Group Ltd. San Jose, CA, USA) and the growth was kinetically monitored every 30 min by measuring the OD at 600 nm.
(§2) The AI-2 bioluminescence assay was performed as described previously. Briefly, APEC O78 cultures grown in the presence of SMs (see above) were centrifuged at 5000 × g for 10 min, and cell-free culture supernatants were prepared by using a 0.22 µm filter 96 well plate (Millipore). The bioluminescence reporter V. harveyi BB170 (AI-1^+ and AI-2^-) was grown overnight in AB medium at 30 °C aerobically with shaking. The overnight culture was diluted to 1:5000 in fresh AB medium and incubated at 30 °C for 3 h. Following incubation, 180 μL of the V. harveyi BB170 culture was distributed into each well of a 96-well plate and mixed with 20 µL of the cell free culture supernatant, the plate was then incubated at 30 °C for 2.5 h in the dark and the bioluminescence was measured using in vivo imaging system (IVIS Lumina Series III, PerkinElmer, USA). […] Cell-free culture supernatants collected from overnight cultures of V. harveyi BB120 (AI-1^+andAI-2^+) and E. coli DH5α (a strain lacks AI-2) were used as controls. Bioluminescence of SMs treated culture supernatants were compared to DMSO treated control. The Z-score was calculated to evaluate the quality of the bioluminescence screening. Four independent experiments were conducted for the 69 compounds that inhibited ≥ 75% of the AI-2 mediated bioluminescence and the average inhibition percentage was calculated.
(§3) The selected compounds were also tested for inhibition of AI-2 production in other APEC serotypes such as O1, O2, O8, O15, O18, O35, O109, and O115 that are commonly implicated in colibacillosis using the same procedure described above.

The test system of assay [1] is AI-2 activity of APEC O78. Put plainly: AI-2 bioluminescence indicator assay (V. harveyi BB170), APEC O78 supernatant. The assay is classed as cell-based, avian pathogenic E. coli (APEC) O78. The note with it: Escherichia coli, read-out: % Inhibtion of AI-2 activity. On the procedure: as §1, §2
Assay [2] relates to APEC O78 biofilm formation. Put plainly: Biofilm assay (crystal violet). To be noted: Escherichia coli, 48 h, crystal violet OD550 vs DMSO control, read-out: reduction of APEC O78 biofilm formation. The assay is classed as cell-based, avian pathogenic E. coli (APEC) O78. On the procedure:
Effect of the selected AI-2 inhibitors on biofilm formation was assessed using the crystal violet (CV) assay. Briefly, APEC O78 was grown in LB broth in the presence of 100 µM of each compound in a 96-well plate at 37 °C for 10 h. The culture was then diluted 1:100 in fresh LB broth. The biofilm assay was performed in a 96-well plate containing 150 µL of the diluted culture and 100 µM of each compound. The plate was then incubated aerobically without shaking at 37 °C for 48 h, washed twice with PBS to remove the non-adherent cells and stained with 200 µL of 0.1% CV in water at room temperature for 10 min. The plate was washed with PBS and biofilm was quantified by measuring the absorbance at 550 nm after solubilizing the CV in 200 μL of 30% acetic acid in water for 15 min.

In the next assay the test system is AI-2 activity of O109. The assay can be described thus: AI-2 bioluminescence indicator assay, APEC O109. The assay is classed as cell-based, avian pathogenic E. coli (APEC) O109. The note with it: Escherichia coli, read-out: % Inhibtion of AI-2 activity, serotype O109, bioluminescence vs DMSO treated control. As for the experimental part:
as §1, §2, §3

A further assay concerns AI-2 activity of O8. The assay can be described thus: AI-2 bioluminescence indicator assay, APEC O8. It is filed as cell-based, avian pathogenic E. coli (APEC) O8. The note with it: Escherichia coli, read-out: % Inhibtion of AI-2 activity, serotype O8, bioluminescence vs DMSO treated control. On the procedure:
as §1, §2, §3

The test system of a further assay is AI-2 activity of O18. Put plainly: AI-2 bioluminescence indicator assay, APEC O18. It is filed as cell-based, avian pathogenic E. coli (APEC) O18. The note with it: Escherichia coli, read-out: % Inhibtion of AI-2 activity, serotype O18, bioluminescence vs DMSO treated control. On the procedure:
as §1, §2, §3

In a further assay the test system is AI-2 activity of APEC O2. The assay can be described thus: AI-2 bioluminescence indicator assay, APEC O2. The assay is classed as cell-based, avian pathogenic E. coli (APEC) O2. To be noted: Escherichia coli, read-out: % Inhibtion of AI-2 activity. As for the experimental part:
as §1, §2, §3

Assay [3] relates to QS-regulated and virulence factors genes of APEC O78. The assay can be described thus: qRT-PCR of QS-regulated and virulence factor genes. The note with it: APEC O78, 100 µM, 10 h, ∆∆Ct vs DMSO. It is filed as cell-based, avian pathogenic E. coli (APEC) O78. As for the experimental part:
The effect of the selected AI-2 inhibitors on the expression of QS-regulated and virulence factors genes of APEC was determined using qRT-PCR. APEC O78 was grown in the presence of 100 µM of each compound in a 96-well plate at 37 °C for 10 h. APEC O78 culture treated with 1µL of 100% DMSO was used as control. Total RNA was extracted from duplicate wells for each compound (200 µL) using a miRNeasy Mini Kit (Qiagen). RNA quality and quantity was determined by nanodrop 2000 C spectrophotometer (Thermo scientific). Traces of DNA were removed using Genomic DNA removal mix (Qiagen). Approximately, 5 μg of purified RNA was used to synthesize cDNA using the Qiagen RT^2 First Strand Kit (Qiagen). The qRT-PCR was performed using SensiMix^TM SYBR® Hi-ROX qPCR Master Mix (Bioline) according to manufacturer instructions in a realplex^2 mastercycler (Eppendorf) with 55 °C annealing temperature. Gene-specific primers were designed using PrimerQuest Tool and obtained from integrated DNA technologies (IDT). The data were normalized to the house-keeping gene, glyceraldehyde-3-phosphate dehydrogenase (GAPDH). The relative fold change was calculated using the ∆∆Ct method. Three independent experiments were conducted.
Background: Real-time PCR tracks product formation cycle by cycle.

For a further assay, the system named is AI-2 activity of O35. The assay can be described thus: AI-2 bioluminescence indicator assay, APEC O35. It is filed as cell-based, avian pathogenic E. coli (APEC) O35. To be noted: Escherichia coli, read-out: % Inhibtion of AI-2 activity, serotype O35, bioluminescence vs DMSO treated control. As for the experimental part: as §1, §2, §3
Another assay relates to AI-2 activity of O115. Put plainly: AI-2 bioluminescence indicator assay, APEC O115. It is filed as cell-based, avian pathogenic E. coli (APEC) O115. The note with it: Escherichia coli, read-out: % Inhibtion of AI-2 activity, serotype O115, bioluminescence vs DMSO treated control. On the procedure:
as §1, §2, §3

The record followed here is PMC7000209, “Novel small molecule modulators of quorum sensing in avian pathogenic Escherichia coli (APEC)” (Virulence, 2018).

For `CCc1ccccc1Nc1nc(-c2c(C)nc3ccccn23)cs1` [C8, N-(2-ethylphenyl)-4-(2-methylimidazo[1,2-a]pyridin-3-yl)-1,3-thiazol-2-amine], the inhibition at 100 µM in the assay with AI-2 activity of O15 is 25%; in assay [1], 98%; in [2], 52 to 58%; in the assay on AI-2 activity of O109, at least 75%; in the assay with AI-2 activity of O8, 18%; in the assay with AI-2 activity of O18, 54%. The inhibition at 100 µM with AI-2 activity of APEC O2 amounted to 94%; in the assay on AI-2 activity of O35 it was 57%; in the assay with AI-2 activity of O115 it was 44%. The “expression of fliP” value in assay [3] is recorded as “down-regulated”. Further, the “expression of ugpC” value in [3] was “down-regulated”.

Turning to `Fc1ccc(CN2CCCN(Cc3nc(-c4ccc(C(F)(F)F)cc4)no3)CC2)cc1` [C9, 1-(4-fluorobenzyl)-4-({3-[4-(trifluoromethyl)phenyl]-1,2,4-oxadiazol-5-yl}methyl)-1,4-diazepane], the inhibition at 100 µM is 0% with AI-2 activity of O15; 79% in [1]; 52 to 58% in [2]; 66% in the assay with AI-2 activity of O109; 20% with AI-2 activity of O8; 14% with AI-2 activity of O18. Further, the inhibition at 100 µM with AI-2 activity of APEC O2 was determined as 51%; with AI-2 activity of O35, 36%; in the assay with AI-2 activity of O115 it was 44%. In assay [3], the “expression of bolA” value is “down-regulated”. Also, the “expression of cheW” value in assay [3] is reported as “down-regulated”. In assay [3], the “expression of csrA” value is on record as “down-regulated”. In assay [3], the expression of iss result is “up-regulated”. The “expression of murD” value in [3] was “down-regulated”. Also, the “expression of nlpC” value in assay [3] was “up-regulated”. Besides, the “expression of ugpC” value in [3] is “down-regulated”.

Take `OCCC1CN(C2CCN(c3ccccc3)CC2)CCN1CCCc1ccccc1` (stereo not drawn) [C10, 2-[4-(1-phenyl-4-piperidinyl)-1-(3-phenylpropyl)-2-piperazinyl]ethanol]: the inhibition at 100 µM in the assay on AI-2 activity of O15 was 22%; in assay [1] it was 84%; in [2], 52 to 58%; with AI-2 activity of O109, 57%; in the assay on AI-2 activity of O8, 0%; in the assay on AI-2 activity of O18, 35%. The results for the inhibition at 100 µM in the assay with AI-2 activity of APEC O2, with AI-2 activity of O35 and with AI-2 activity of O115 were 89%, 47% and at least 75%, respectively. For the same compound, in assay [3], the “expression of fliP” value is on record as “down-regulated”. In addition, the “expression of frwC” value in assay [3] is “down-regulated”. For the same compound, the expression of iss entry in assay [3] is given as “down-regulated”.
